Assay results reported in the supplement of paper PMC11061612.

How the values were obtained:
Test in all cases: Bliss excess, mean over the matrix (fraction); higher = more synergy
[1] = test system: NCI-H1792 (Lung Adenocarcinoma)
Method in brief: (§1)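 Cell lines grown in DMEM/F12 or RPMI with 10% FBS were plated in 1536-well plates and held 24 hours at 37°C, 5% CO2 before 72 hours of exposure to two-drug dose matrices, with DMSO typically at 0.2%. CellTiter-Glo 2.0 luminescence gave viability, which was converted to inhibition. Vehicle wells were set to 0 and blank wells to 1. Combination Emax is the second-highest inhibition in the matrix, and Bliss excess is the observed combination effect minus the expected EA + EB − EA·EB, where EA and EB are the single-agent effects.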

[2] = test system: MKN28 (Gastric Carcinoma)
Method in brief: as §1

[3] = test system: TC-71 (Ewing's Sarcoma)
Method in brief: as §1

[4] = test system: MFM-223 (Breast Carcinoma)
Method in brief: as §1

[5] = test system: BL-41 (Burkitt's Lymphoma)
Method in brief: as §1

[6] = test system: WIL2-NS (Non-Cancerous)
Method in brief: as §1

[7] = test system: KYSE-180 (Esophageal Squamous Cell Carcinoma)
Method in brief: as §1

[8] = test system: DiFi (Colorectal Carcinoma)
Method in brief: as §1

[9] = test system: TE-6 (Esophageal Squamous Cell Carcinoma)
Method in brief: as §1

[10] = test system: SW1417 (Colorectal Carcinoma)
Method in brief: as §1

[11] = test system: U251 (Low Grade Glioma)
Method in brief: as §1

[12] = test system: SU-DHL-8 (B-Cell Non-Hodgkin's Lymphoma)
Method in brief: as §1

[13] = test system: EVSA-T (Breast Carcinoma)
Method in brief: as §1

[14] = test system: MS751 (Cervical Carcinoma)
Method in brief: as §1

[15] = test system: P12-ICHIKAWA (T-Lymphoblastic Leukemia)
Method in brief: as §1

[16] = test system: ES8 (Ewing's Sarcoma)
Method in brief: as §1

[17] = test system: MEL-JUSO (Melanoma)
Method in brief: as §1

[18] = test system: CAMA-1 (Breast Carcinoma)
Method in brief: as §1

[19] = test system: HDQ-P1 (Breast Carcinoma)
Method in brief: as §1

Compound `NC1(C(=O)N[C@@H](CCO)c2ccc(Cl)cc2)CCN(c2ncnc3[nH]ccc23)CC1` [Capivasertib] + CC(=O)c1c(C)c2cnc(Nc3ccc(N4CCNCC4)cn3)nc2n(C2CCCC2)c1=O [Palbociclib] (first compound max 10 µM, 7x7, partner max 10 µM) has a Bliss excess [1] of 0.0419, a Bliss excess [2] of -0.0459 and a Bliss excess [3] of 0.0341. The Bliss excess [4] was 0.0091, the Bliss excess [5] was -0.0275 and the Bliss excess [6] was -0.0049. The Bliss excess [7] was 0.0645, the Bliss excess [8] was -0.0394 and the Bliss excess [9] was -0.0195. It also gave a Bliss excess [10] of 0.0067, a Bliss excess [11] of 0.0007 and a Bliss excess [12] of 0.0646. The Bliss excess [13] was 0.0168, the Bliss excess [14] was -0.0222 and the Bliss excess [15] was -0.0096. For the same compound, the Bliss excess [16] was 0.0848, the Bliss excess [17] was -0.0137 and the Bliss excess [18] was 0.052. The Bliss excess [19] was -0.0092.

`NC1(C(=O)N[C@@H](CCO)c2ccc(Cl)cc2)CCN(c2ncnc3[nH]ccc23)CC1` [Capivasertib] + CC(C)n1c(=O)n(C)c2cnc3cc(F)c(-c4ccc(OCCCN5CCCCC5)nc4)cc3c21 [AZD1390] (first compound max 10 µM, 7x7, partner max 0.3 µM) was tested, and the Bliss excess [1] was -0.0625, the Bliss excess [2] was -0.0634 and the Bliss excess [3] was -0.0567. For the same compound, the Bliss excess [4] was -0.0098, the Bliss excess [5] was -0.193 and the Bliss excess [6] was -0.0379. It also gave a Bliss excess [7] of -0.0509, a Bliss excess [8] of -0.0436 and a Bliss excess [9] of -0.134. The Bliss excess [10] was -0.0394, the Bliss excess [11] was -0.0549 and the Bliss excess [12] was -0.0156. For the same compound, the Bliss excess [13] was -0.0326, the Bliss excess [14] was 0.0033 and the Bliss excess [15] was -0.018. The Bliss excess [16] was -0.0318, the Bliss excess [17] was -0.0784 and the Bliss excess [18] was -0.0558. It also gave a Bliss excess [19] of -0.0442.

For `NC1(C(=O)N[C@@H](CCO)c2ccc(Cl)cc2)CCN(c2ncnc3[nH]ccc23)CC1` [Capivasertib] + CCN(CCO)CCCOc1ccc2c(Nc3cc(CC(=O)Nc4cccc(F)c4)[nH]n3)ncnc2c1 [AZD2811] (first compound max 10 µM, 7x7, partner max 1 µM), the Bliss excess [1] was -0.0079, the Bliss excess [2] was 0.0119 and the Bliss excess [3] was -0.0573. The Bliss excess [4] was -0.0072, the Bliss excess [5] was -0.123 and the Bliss excess [6] was -0.0431. For the same compound, the Bliss excess [7] was -0.0303, the Bliss excess [8] was -0.0475 and the Bliss excess [9] was -0.0003. For the same compound, the Bliss excess [10] was -0.0478, the Bliss excess [11] was 0.0469 and the Bliss excess [12] was 0.0078. It also gave a Bliss excess [13] of 0.0219, a Bliss excess [14] of 0.0515 and a Bliss excess [15] of -0.014. For the same compound, the Bliss excess [16] was -0.0394, the Bliss excess [17] was -0.0083 and the Bliss excess [18] was 0.0051. The Bliss excess [19] was -0.0077.

Compound `NC1(C(=O)N[C@@H](CCO)c2ccc(Cl)cc2)CCN(c2ncnc3[nH]ccc23)CC1` [Capivasertib] + COc1nnc2ccc(N3CCC(c4ccc(OCCN5CCN(C)C(=O)[C@H]5C)cc4)CC3)nn12 [AZD5153] (first compound max 10 µM, 7x7, partner max 1 µM) has a Bliss excess [1] of 0.0039, a Bliss excess [2] of -0.0075 and a Bliss excess [3] of 0.0228. It also gave a Bliss excess [4] of -0.0302, a Bliss excess [5] of 0.036 and a Bliss excess [6] of -0.0933. For the same compound, the Bliss excess [7] was 0.0387, the Bliss excess [8] was -0.056 and the Bliss excess [9] was -0.0708. The Bliss excess [10] was -0.0135, the Bliss excess [11] was 0.0284 and the Bliss excess [12] was 0.0407. It also gave a Bliss excess [13] of -0.033, a Bliss excess [14] of -0.0065 and a Bliss excess [15] of 0.0553. The Bliss excess [16] was 0.0894, the Bliss excess [17] was -0.0049 and the Bliss excess [18] was 0.106. For the same compound, the Bliss excess [19] was 0.0651.

Compound `NC1(C(=O)N[C@@H](CCO)c2ccc(Cl)cc2)CCN(c2ncnc3[nH]ccc23)CC1` [Capivasertib] + C[C@@H]1COCCN1C2=NC(=NC(=C2)C3(CC3)[S@](=N)(=O)C)C4=C5C=CNC5=NC=C4 [AZD6738] (first compound max 10 µM, 7x7, partner max 10 µM) has a Bliss excess [1] of -0.0208, a Bliss excess [2] of -0.0459 and a Bliss excess [3] of 0.0295. For the same compound, the Bliss excess [4] was -0.0626, the Bliss excess [5] was -0.0552 and the Bliss excess [6] was -0.0529. It also gave a Bliss excess [7] of -0.0866, a Bliss excess [8] of -0.122 and a Bliss excess [9] of -0.0476. The Bliss excess [10] was -0.0282, the Bliss excess [11] was -0.0006 and the Bliss excess [12] was -0.0045. It also gave a Bliss excess [13] of 0.0185, a Bliss excess [14] of -0.0156 and a Bliss excess [15] of 0.0043. It also gave a Bliss excess [16] of 0.0038, a Bliss excess [17] of 0.0083 and a Bliss excess [18] of -0.0149. The Bliss excess [19] was -0.0178.

Work on `NC1(C(=O)N[C@@H](CCO)c2ccc(Cl)cc2)CCN(c2ncnc3[nH]ccc23)CC1` [Capivasertib] + Cn1cnc2c(F)c(Nc3ccc(Br)cc3Cl)c(C(=O)NOCCO)cc21 [Selumetinib] (first compound max 10 µM, 7x7, partner max 10 µM) yielded a Bliss excess [1] of 0.0276, a Bliss excess [2] of -0.05 and a Bliss excess [3] of 0.0203. It also gave a Bliss excess [4] of 0.0276, a Bliss excess [5] of 0.0106 and a Bliss excess [6] of 0.0482. It also gave a Bliss excess [7] of -0.0307, a Bliss excess [8] of 0.0049 and a Bliss excess [9] of 0.0032. It also gave a Bliss excess [10] of 0.0152, a Bliss excess [11] of 0.0099 and a Bliss excess [12] of -0.0214. It also gave a Bliss excess [13] of -0.0157, a Bliss excess [14] of 0.0024 and a Bliss excess [15] of 0.15. The Bliss excess [16] was -0.0548, the Bliss excess [17] was 0.0315 and the Bliss excess [18] was 0.0187. For the same compound, the Bliss excess [19] was -0.0046.

In the case of `Cc1nc(Nc2ncc(C(=O)Nc3c(C)cccc3Cl)s2)cc(N2CCN(CCO)CC2)n1` [Dasatinib] + CC(=O)Nc1cccc(-n2c(=O)n(C3CC3)c(=O)c3c(Nc4ccc(I)cc4F)n(C)c(=O)c(C)c32)c1 [Trametinib] (first compound max 2 µM, 7x7, partner max 1 µM), the Bliss excess [1] is reported as 0.0422, the Bliss excess [2] is reported as 0.0027 and the Bliss excess [3] is reported as -0.0333. For the same compound, the Bliss excess [4] was -0.0546, the Bliss excess [5] was 0.0075 and the Bliss excess [6] was 0.133. The Bliss excess [7] was -0.0424, the Bliss excess [8] was -0.0465 and the Bliss excess [9] was -0.0255. For the same compound, the Bliss excess [10] was 0.131, the Bliss excess [11] was 0.0682 and the Bliss excess [12] was -0.0242. It also gave a Bliss excess [13] of -0.0361, a Bliss excess [14] of -0.0099 and a Bliss excess [15] of 0.0326. For the same compound, the Bliss excess [16] was 0.0243, the Bliss excess [17] was -0.0878 and the Bliss excess [18] was -0.0382. It also gave a Bliss excess [19] of -0.0033.

`CC(=O)c1c(C)c2cnc(Nc3ccc(N4CCNCC4)cn3)nc2n(C2CCCC2)c1=O` [Palbociclib] + CN(CC[C@H](CSC1=CC=CC=C1)NC2=C(C=C(C=C2)S(=O)(=O)NC(=O)C3=CC=C(C=C3)N4CCC(CC4)[C@H](C5=CC=CC=C5C6=CC=C(C=C6)Cl)O)S(=O)(=O)C(F)(F)F)CCO [AZD4320] (first compound max 10 µM, 7x7, partner max 1 µM) gave a Bliss excess [3] of -0.0326, a Bliss excess [4] of -0.0021 and a Bliss excess [7] of -0.0269. It also gave a Bliss excess [8] of -0.0038, a Bliss excess [9] of -0.0596 and a Bliss excess [11] of -0.0989. The Bliss excess [12] was -0.106, the Bliss excess [13] was -0.0631 and the Bliss excess [14] was -0.0552. For the same compound, the Bliss excess [15] was -0.0298, the Bliss excess [17] was -0.099 and the Bliss excess [19] was -0.0735.
